Measurements taken from US11300570B2, “Therapeutic and diagnostic methods for cancer” (Genentech, Inc., priority 2016, dated 2022).

How the values were obtained:
[1] = tested on: locally advanced or metastatic NSCLC (PD-L1-unselected patients); test: POPLAR Phase II randomized trial, atezolizumab vs docetaxel, in 2L+ PD-L1-unselected NSCLC, efficacy by tTMB; type: in vivo, human; details: POPLAR; for OS HR (95% CI) / PFS HR (95% CI): atezolizumab vs docetaxel
Excerpt: (§1) Patients were eligible for enrollment in the POPLAR study if they had locally advanced or metastatic (e.g., stage IIIB, stage IV, or recurrent) NSCLC; disease progression during or following treatment with a prior platinum-containing regimen for locally advanced, unresectable/inoperable, or metastatic NSCLC, or disease recurrence within 6 months of treatment with a platinum-based adjuvant/neoadjuvant regimen; measurable disease, as defined by RECIST v1.1; and an ECOG performance status of 0 or 1. Participants were randomized to receive either atezolizumab at a dose of 1200 mg intravenously every three weeks or docetaxel 75 mg per meter square (mg/m^2) intravenously every three weeks. Treatment with atezolizumab could be continued as long as participants were experiencing clinical benefit, i.e., in the absence of unacceptable toxicity or symptomatic deterioration attributed to disease progression. Pre-treatment tumor samples from patients in the Phase III OAK trial (Clinical Trial ID No.: NCT02008227) were also evaluated for tTMB. Patients were eligible for enrollment in the OAK study if they had locally advanced or metastatic (e.g., stage IIIB, stage IV, or recurrent) NSCLC; disease progression during or following treatment with a prior platinum-containing regimen for locally advanced, unresectable/inoperable, or metastatic NSCLC, or disease recurrence within 6 months of treatment with a platinum-based adjuvant/neoadjuvant regimen; measurable disease, as defined by RECIST v1.1; and an ECOG performance status of 0 or 1. Participants were randomized to receive either atezolizumab at a dose of 1200 mg intravenously every three weeks or docetaxel 75 mg per square meter (mg/m^2) intravenously every three weeks. Treatment with atezolizumab could be continued as long as participants were experiencing clinical benefit, i.e., in the absence of unacceptable toxicity or symptomatic deterioration attributed to disease progression.
Data from the single-arm, PD-L1-selected trials BIRCH and FIR were combined and analyzed to examine the association between tTMB and clinical outcomes among PD-L1-selected patients. Data from the randomized, PD-L1-unselected trial, POPLAR, were analyzed separately and treatment effects between the atezolizumab- and docetaxel-treatment arms were compared.
To identify somatic mutations, tumor samples (e.g., archival tumor samples) were processed as described in Frampton et al. Nat. Biotechnol. 31:1023-31, 2013. Sequencing libraries were constructed to sequence and analyze samples. In addition to standard mutation processing, a mutation load estimation algorithm was applied that, based on the number of somatic mutations and/or rearrangements detected in Table 1 or Table 2, respectively, extrapolates to the exome or the genome as a whole. For purposes of mutation load estimation, all coding short variant alterations, base substitutions, and indels detected in the genes listed in Table 1 and Table 2 were counted. Further, all coding alterations (base substitutions and indels), including synonymous alterations, with the exception of known oncogenic driver mutations, in the genes listed in Table 1 and Table 2 were counted. However, numerous classes of detected alterations were not counted: non-coding alterations; alterations with known (occurring as known somatic alterations in the COSMIC database (Forbes et al. (2014) Nucl. Acids Res. 43:D805-11) and likely (truncations in tumor suppressor genes) functional status; known germline alterations in the dbSNP database (Sherry et al. (2001) Nucleic Acids Res. 29(1):308-11); germline alterations occurring with two or more counts in the ExAC database (Exome Aggregation Consortium (ExAC), Cambridge, Mass.); alterations that are predicted to be germline in the specimen being assessed; and alterations that are predicted to be germline in a cohort of >60,000 clinical specimens. […]

[2] = tested on: locally advanced or metastatic NSCLC; test: OAK Phase III randomized trial, atezolizumab vs docetaxel, in 2L+ NSCLC, efficacy by tTMB; type: in vivo, human; details: for Median OS / Median PFS: 2L+ OAK
Excerpt: as §1
To identify somatic mutations, tumor samples (e.g., archival tumor samples) were processed as described in Frampton et al. Nat. Biotechnol. 31:1023-31, 2013. Sequencing libraries were constructed to sequence and analyze samples. In addition to standard mutation processing, a mutation load estimation algorithm was applied that, based on the number of somatic mutations and/or rearrangements detected in Table 1 or Table 2, respectively, extrapolates to the exome or the genome as a whole. For purposes of mutation load estimation, all coding short variant alterations, base substitutions, and indels detected in the genes listed in Table 1 and Table 2 were counted. Further, all coding alterations (base substitutions and indels), including synonymous alterations, with the exception of known oncogenic driver mutations, in the genes listed in Table 1 and Table 2 were counted. However, numerous classes of detected alterations were not counted: non-coding alterations; alterations with known (occurring as known somatic alterations in the COSMIC database (Forbes et al. (2014) Nucl. Acids Res. 43:D805-11) and likely (truncations in tumor suppressor genes) functional status; known germline alterations in the dbSNP database (Sherry et al. (2001) Nucleic Acids Res. 29(1):308-11); germline alterations occurring with two or more counts in the ExAC database (Exome Aggregation Consortium (ExAC), Cambridge, Mass.); alterations that are predicted to be germline in the specimen being assessed; and alterations that are predicted to be germline in a cohort of >60,000 clinical specimens. Finally, to calculate the mutation load per megabase, the total number of mutations counted was divided by the coding region target territory of the test, which was 1.110 megabases (Mb) for the current version of the test. The average median coverage value for all samples was 490.
The BEP was defined as patients with at least one tTMB measurement from a baseline tumor sample. […]

[3] = tTMB quantile ≥25%, unadjusted, unstratified
[4] = tTMB quantile ≥50% (median), unadjusted, unstratified
[5] = tTMB quantile ≥75%, unadjusted, unstratified
[6] = BEP (evaluable for TMB) (n = 174 atezolizumab, 186 docetaxel)
[7] = tTMB score <9 mut/Mb (n = 91 atezolizumab, 87 docetaxel)
[8] = tTMB score <16 mut/Mb (n = 135 atezolizumab, 136 docetaxel)
[9] = tTMB score ≥9 mut/Mb (n = 83 atezolizumab, 99 docetaxel)
[10] = tTMB score ≥16 mut/Mb (n = 39 atezolizumab, 50 docetaxel)

atezolizumab
association of tTMB with efficacy of atezolizumab compared to docetaxel ([1]; PD-L1-unselected 2L+ patients with NSCLC): trend towards an association of tTMB with improved efficacy | clinical benefit in patients with low or no PD-L1 expression on TC and IC ([1]; long-term follow-up (FIG. 1)): can also derive clinical benefit | ORR (confirmed per RECIST v1.1) with increasing tTMB ([1]; per treatment arm): higher ORR (confirmed per RECIST v1.1) was associated with increased tTMB | ORR ([1]; BEP (n = 54 atezolizumab vs 38 docetaxel)): 13% | ORR ([1]; ITT (n = 144 atezolizumab vs 143 docetaxel)): 15% vs 15% | OS HR (95% CI) ([1]; BEP (n = 54 vs 38)): 0.65 (0.38, 1.12) | PFS HR (95% CI) ([1]; BEP (n = 54 vs 38), unadjusted, unstratified): 0.98 (0.63, 1.53) | OS HR (95% CI) ([1]; ITT (n = 144 vs 143)): 0.69 (0.49, 0.98) | PFS HR (95% CI) ([1]; ITT (n = 144 vs 143), unadjusted, unstratified): 0.92 (0.71, 1.20) | OS HR (95% CI) [1, 3]: 0.55 (0.29, 1.03) | PFS HR (95% CI) [1, 3]: 0.88 (0.52, 1.48) | OS HR (95% CI) [1, 4]: 0.48 (0.23, 1.04) | PFS HR (95% CI) [1, 4]: 0.49 (0.25, 0.93) | OS HR (95% CI) [1, 5]: 0.50 (0.15, 1.67) | PFS HR (95% CI) [1, 5]: 0.49 (0.19, 1.30) | ORR ([1]; tTMB quantile ≥25%): 14% | ORR ([1]; tTMB quantile ≥50% (median)): 20% | ORR ([1]; tTMB quantile ≥75%): 20% | Median OS [2, 6]: 13.3 months | Median PFS [2, 6]: 2.0 months | Median OS ([2]; ITT (n = 425 per arm)): 13.8 months | Median PFS ([2]; ITT (n = 425 per arm)): 2.0 months | Median OS [2, 7]: 14.2 months | Median PFS [2, 7]: 1.8 months | Median OS [2, 8]: 12.7 months | Median PFS [2, 8]: 1.7 months | Median OS [2, 9]: 13.3 months | Median PFS [2, 9]: 2.5 months | Median OS [2, 10]: 18.7 months | Median PFS [2, 10]: 5.5 months | association of tissue TMB with efficacy ([2]; OAK study): associated with improved efficacy
